Data reported in US11484708B2, “Methods and devices for surgical pre-treatment” (Vomaris Innovations, Inc., priority 2014, dated 2022).

Assays:
HUVEC cells [1] = assay: EF-induced elongation of endothelial cells (long:short axis ratio); format: cell-based, human; details: for long:short axis ratio in EF-treated cells: inhibitor 50 μM, vs control
Procedure: Tissue culture reagents were obtained from Life Technologies UK. […] Rhodamine-phalloidin (E3478) was obtained from Molecular Probes (Leiden, The Netherlands) and anti-tubulin conjugated with FITC was obtained from Sigma. The HUVEC cell line from ATCC was used prior to passage 10. Dulbecco's modified Eagle's medium (DMEM) with 10% fetal bovine serum (FBS) was used for culture cells and EF exposure experiments.
HUVEC cells were seeded in a trough formed by two parallel (1 cm apart) strips of glass coverslip (No. 1, length of 22 mm) fixed to the base of the dish with silicone grease. Scratch lines were made perpendicular to the long axis of the chamber with a fine sterile needle and used as reference marks for directed cell migration. Cells were incubated for 24-48 hours (37° C., 5% CO2) before a roof coverslip was applied and sealed with silicone grease. The final dimensions of the chamber, through which current was passed, were 22×10×0.2 mm. Agar-salt bridges not less than 15 cm long were used to connect silver/silver-chloride electrodes in beakers of Steinberg's solution (58 mM NaCl, 0.67 mM KCl, 0.44 mM Ca(NO3)2, 1.3 mM MgSO4, 4.6 mM Trizma base, pH 7.8-8.0), to pools of excess culture medium at either side of the chamber. Field strengths were measured directly at the beginning of, the end of and during each experiment. No fluctuations in field strength were observed. […] (50 μM), the Rho kinase inhibitor Y27632 (50 μM), both Akt and Rho kinase inhibitors (10 μM each) or latrunculin (50 nM) for 1 hour before EF stimulation. […]
A series of images was taken with an image analyser immediately before EF exposure and at 4, 8 and 24 hours of EF exposure. Cell orientation was quantified as an orientation index (Oi), which is defined as Oi=cos2(α), where α is the angle formed by the long axis of a cell with a line drawn perpendicular to the field lines. […] The significance of this two-dimensional orientation distribution against randomness was calculated using Rayleigh's distribution. A long:short axis ratio was calculated for assessment of elongation.

HUVEC cells [2] = assay: EF-induced reorientation of endothelial cells (orientation index Oi); format: cell-based, human
Procedure: HUVEC cells were seeded in a trough formed by two parallel (1 cm apart) strips of glass coverslip (No. 1, length of 22 mm) fixed to the base of the dish with silicone grease. Scratch lines were made perpendicular to the long axis of the chamber with a fine sterile needle and used as reference marks for directed cell migration. Cells were incubated for 24-48 hours (37° C., 5% CO2) before a roof coverslip was applied and sealed with silicone grease. The final dimensions of the chamber, through which current was passed, were 22×10×0.2 mm. Agar-salt bridges not less than 15 cm long were used to connect silver/silver-chloride electrodes in beakers of Steinberg's solution (58 mM NaCl, 0.67 mM KCl, 0.44 mM Ca(NO3)2, 1.3 mM MgSO4, 4.6 mM Trizma base, pH 7.8-8.0), to pools of excess culture medium at either side of the chamber. Field strengths were measured directly at the beginning of, the end of and during each experiment. […] (50 μM), the Rho kinase inhibitor Y27632 (50 μM), both Akt and Rho kinase inhibitors (10 μM each) or latrunculin (50 nM) for 1 hour before EF stimulation. The same concentration of drug was present during EF exposure in a CO2 incubator.
A series of images was taken with an image analyser immediately before EF exposure and at 4, 8 and 24 hours of EF exposure. Cell orientation was quantified as an orientation index (Oi), which is defined as Oi=cos2(α), where α is the angle formed by the long axis of a cell with a line drawn perpendicular to the field lines. A cell with its long axis parallel to the vector of the EF will have an Oi of −1, and a cell with its long axis exactly perpendicular to the EF vector will have an Oi of +1. […] The significance of this two-dimensional orientation distribution against randomness was calculated using Rayleigh's distribution. A long:short axis ratio was calculated for assessment of elongation.

Human keratinocytes = assay: in vitro scratch assay (cell migration); format: cell-based
Source text: The in vitro scratch assay is an easy, low-cost and well-developed method to measure cell migration in vitro. The basic steps involve creating a “scratch” in a cell monolayer, capturing images at the beginning and at regular intervals during cell migration to close the scratch, and comparing the images to quantify the migration rate of the cells. Compared to other methods, the in vitro scratch assay is particularly suitable for studies on the effects of cell-matrix and cell-cell interactions on cell migration, mimic cell migration during wound healing in vivo and are compatible with imaging of live cells during migration to monitor intracellular events if desired. In addition to monitoring migration of homogenous cell populations, this method has also been adopted to measure migration of individual cells in the leading edge of the scratch.
Human keratinocytes were plated under plated under placebo or a LLEC system described herein (labeled “PROCELLERA®”). Cells were also plated under silver-only or zinc-only dressings. After 24 hours, the scratch assay was performed.
Cell culture—Immortalized HaCaT human keratinocytes were grown in Dulbecco's low-glucose modified Eagle's medium (Life Technologies, Gaithersburg, Md., U.S.A.) supplemented with 10% fetal bovine serum, 100 U/ml penicillin, and 100 μg/ml streptomycin. The cells were maintained in a standard culture incubator with humidified air containing 5% CO2 at 37° C.
Scratch assay—A cell migration assay was performed using culture inserts (IBIDI®, Verona, Wis.) according to the manufacturer's instructions. Cell migration was measured using time-lapse phase-contrast microscopy following withdrawal of the insert. Images were analyzed using the AxioVision Rel 4.8 software.
N-Acetyl Cysteine Treatment—Cells were pretreated with 5 mM of the thiol antioxidant N-acetylcysteine (Sigma) for 1 h before start of the scratch assay.
IGF-1 R inhibition—When applicable, cells were preincubated with 50 nM IGF-1 R inhibitor, picropodophyllin (Calbiochem, Mass.) just prior to the Scratch Assay. […]

[3] = inhibitor 50 μM, 1 hour before and during EF

In the case of “1-L-6-hydroxymethyl-chiro-inositol 2-[(R)-2-O-methyl-3-O-octadecylcarbonate] [Akt inhibitor]”, the “long:short axis ratio in EF-treated cells” value (HUVEC cells [1]) is reported as “significantly decreased the long:short axis ratio” and the “orientation response of cells in an EF” value (HUVEC cells [2]; [3]) is reported as “significantly decreased the orientation response”.

With COc1cc([C@@H]2c3cc4c(cc3[C@H](O)[C@H]3COC(=O)[C@@H]23)OCO4)cc(OC)c1OC [IGF-1 R inhibitor, picropodophyllin] the “increased keratinocyte migration observed with LLEC, in presence of IGF-1 R inhibitor” value (Human keratinocytes; 50 nM picropodophyllin just prior to scratch assay) was “attenuated the increased keratinocyte migration”.

For C/C1=C/C(=O)O[C@@H]2C[C@@H](CC[C@H](C)/C=C\C=C\CC1)O[C@@](O)([C@@H]1CSC(=O)N1)C2 [Latrunculin A], the EF-induced elongation response (HUVEC cells [1]; latrunculin 50 nM) was “completely abolished the EF-induced elongation response” and the “orientation response of cells in an EF” value (HUVEC cells [2]; latrunculin 50 nM, P<0.001) was “suppressed the orientation response significantly”.

In the case of CC(=O)N[C@@H](CS)C(=O)O [N-Acetyl Cysteine, N-acetylcysteine], the “increased keratinocyte migration observed with LLEC, in presence of N-acetyl cysteine” value (Human keratinocytes; 5 mM, 1 h pretreatment before scratch assay) is reported as “failed to reproduce the increased migration”.

In the case of COc1cc2ncnc(Nc3ccc(Cl)cc3F)c2cc1OC [VEGFR inhibitor, 4-[(4′-chloro-2′-fluoro)phenylamino]-6,7-dimethoxyquinazoline], the “orientation response of cells in an EF” value (HUVEC cells [2]; [3]) is reported as “completely abolished the reorientation of cells in an EF”.

For C[C@@H](N)[C@H]1CC[C@H](C(=O)Nc2ccncc2)CC1 [Y27632], the “long:short axis ratio in EF-treated cells” value (HUVEC cells [1]) was “significantly decreased the long:short axis ratio”.

In the case of catalase, the “increased migration triggered by the LLEC, with over-expression of catalase” value (Human keratinocytes; HaCaT transfected with AdCatalase, 72 h) is reported as “attenuated the increased migration”.
